Results taken from patent EP0262209B1, “SYNERGISTIC PLANT GROWTH REGULATOR COMPOSITIONS” (RHONE POULENC NEDERLAND B.V., priority 1986, dated 1987).

Key:
cotton [1] = experiment: Defoliation of cotton at various rates (Example XII, Table I); type: in vivo; details: Rate 0.5 Pounds per Acre, alone
Method: (§1) Solutions of the test compounds and compositions identified in Table F were prepared by dissolving the compounds in acetone/water (50:50 volume/volume) containing 0.1 percent volume/volume of Surfel® spray adjuvant commercially available from Union Carbide Corporation, Danbury, Connecticut. As detailed below, these solutions of test compounds and compositions were applied to cotton plants at a concentration of 0.5 pounds of each active ingredient per acre (0,6 kg/ha) or 2.0 pounds of active ingredient per acre (2,2 kg/ha). The compositions were applied to cotton as mixtures.
(§2) The above solutions were applied to cotton plants growing under field conditions at a spray volume equivalent to 100 gallons per acre 935 l/ha) by use of a carbon dioxide backpack sprayer set at about 30 psig air pressure (2 bar). The application timing coincided with a cotton maturity phase equivalent to about 40 percent open bolls. As a control, a water-acetone solution containing no test compound or composition was also sprayed on the cotton plants. At four days after treatment, percent defoliation of the cotton plants was determined by visual observation. At 14 days after treatment, percent boll opening was determined by visual observation of the number of open bolls/total number of bolls. The percent defoliation and percent boll opening values obtained for the control and each of the test compounds and compositions are reported in Table F as the average of three replications. TABLE F
In a manner similar to the procedure described in Example IX , the defoliation effect on cotton was determined for representative synergistic compositions at various rates of application.

snapbean plants [2] = experiment: Defoliation of snapbean plants, foliar spray (Example VI, Table C); type: in vivo, Phaseolus vulgaris var. Cranberry; details: Phaseolus vulgaris, foliar spray, 96 hours after treatment, read-out: Percent Defoliation; for pest or weed control at 280.212 g/ha: Rate 0.25 Pounds per Acre; for pest or weed control at 560.425 g/ha: Rate 0.50 Pounds per Acre
Method: (§3) Solutions of the test compounds and compositions identified in Table C below were prepared by dissolving the compounds in acetone/water (50:50 volume/volume) containing 0.1 percent volume/volume of Triton X-100 surfactant commercially available from Rhom and Haas Company, Philadelphia, Pennsylvania. As detailed below, these solutions of the test compounds and compositions were applied to snapbean plants at a concentration of 0.25 pounds of each active ingredient per acre (0.28 kg/ha) or 0.50 pounds of each active ingredient per acre (0.56 kg/ha). The compositions were applied to the snapbean plants as a mixture. Ethephon is commercially available from Union Carbide Agricultural Products Company, Inc., Research Triangle Park, North Carolina.
(§4) Into 13.5 centimeter diameter plastic pots containing a potting soil mix, i.e., one-third sandy loam soil, one-third peat moss and one-third perlite by volume, were sown three snapbean seeds (Phaseolus vulgaris var. Cranberry). Five to seven days after planting, the plants were thinned to one plant per pot. Ten to fourteen days after planting at the time of full expansion of the primary leaves, each concentration of the test compounds and compositions identified in […] (each pot sprayed with a volume equivalent to 180 gallons per acre) - i.e. 1683 l/ha was applied to three snapbean plants as a foliar spray by use of an aspirated spray apparatus set at 10 psig air pressure (517 mmHg). As a control, a water-acetone solution containing no test compound or composition was also sprayed on three snapbean plants. When dry, all or the plants were placed in a greenhouse at a temperature of 80°F ± 5°F (27°C ± 3°C) and humidity of 50 percent ± 5 percent. At 96 hours after treatment, percent defoliation of the snapbean plants was determined by visual observation. The values obtained For the control and each test compound and composition were averaged to obtain the results in Table C.

snapbean plants [3] = experiment: Defoliation of snapbean plants with various ethylene releasing agents (Example XVI, Table M); type: in vivo, Phaseolus vulgaris var. Cranberry
Method: as §3, §4
In a manner similar to the procedure described in Example VI , the defoliation effect on snapbean plants was determined for representative synergistic compositions at various rates of application using various ethylene releasing agents identified in Table M below. The ethylene releasing agents used in […] are known materials which can be prepared by conventional methods.

snapbean plants [4] = experiment: Combination/sequential applications, defoliation of snapbean plants (Example VIII, Table E); type: in vivo, Phaseolus vulgaris var. Cranberry; details: Rate 0.5 Pounds per Acre, applied alone
Method: as §3
(§5) Into 13.5 centimeter diameter plastic pots containing a potting soil mix, i.e., one-third sandy loam soil, one-third peat moss and one-third perlite by volume, were sown three snapbean seeds (Phaseolus vulgaris var. Cranberry). Five to seven days after planting, the plants were thinned to one plant per pot. […] At 96 hours after treatment, percent defoliation of the snapbean plants was determined by visual observation. […]
In a manner similar to the procedure described in Example VI , the defoliation effect on snapbean plants was determined for representative synergistic compositions using both combination (tank mix) and sequential application methods. […]

cotton [5] = experiment: Sequential applications, defoliation of cotton (Example XI, Table H); type: in vivo; details: alone
Method: In a manner similar to the procedure described in Example VI , the defoliation effect on snapbean plants was determined for representative synergistic compositions using both combination (tank mix) and sequential application methods. In the sequential application method, the second compound was applied 78 hours after the first compound. TABLE E
In a manner similar to the procedure described in Example VIII , the defoliation effect on cotton was determined for representative synergistic compositions using sequential application. Ethephon applications were made 7 days after application of the particular malonic acid derivative compound. TABLE H

cotton plant = experiment: Regrowth of cotton following defoliation, DEF treated plant as standard (Example XIV, Table K); type: in vivo; details: regrowth relative to DEF standard (43 percent), Rate 0.5 Pounds per Acre, 30 days after treatment; for inhibition at 560.425 g/ha: Gossypium hirsutum, 720 h, read-out: Percent Inhibition
Method: as §1, §2
In a manner similar to the procedure described in Example IX , the effect of cotton regrowth after defoliation was determined for representative synergistic compositions at various rates of application. The percent regrowth inhibition and stimulation in Table R below were determined by visual observation based on the percent of a cotton plant having regrowth using a DEF treated cotton plant as the standard. DEF is commercially available from Mobay Chemical Corporation, Kansas City, Missouri. The average regrowth of a cotton plant treated with DEF was 43 percent. As used in Table R, percent regrowth inhibition resulted from a cotton plant having a regrowth percentage less than 43 percent (DEF standard), and percent regrowth stimulation resulted from a cotton plant having a regrowth percentage greater than 43 percent. The percent regrowth inhibition and stimulation were determined 30 days after treatment.

snapbean plants [6] = experiment: Defoliation of snapbean plants at various rates, 72 hours (Example VII, Table D); type: in vivo, Phaseolus vulgaris var. Cranberry; details: 72 hours after treatment
Method: as §3, §4
In a manner similar to the procedure described in Example VI, the defoliation effect on snapbean plants was determined for representative synergistic compositions at various rates of application except that percent defoliation of the snapbean plants was determined at 72 hours after treatment. TABLE D

cotton plants = experiment: Defoliation and boll opening of cotton under field conditions (Example IX, Table F); type: in vivo; design: key to Percent Boil Opening: *: Percent boll opening essentially the same as the control as determined by visual observation; details: Rate 2.0 Pounds per Acre; for Percent Boil Opening: 14 days after treatment, result given by footnote symbol, control 41; for Percent Defoliation: field conditions, four days after treatment
Method: as §1, §2

rank growth cotton = experiment: Defoliation of cotton (rank growth) (Example X, Table G); type: in vivo; details: Rate 2.0 Pounds per Acre
Method: as §1, §2
In a manner similar to the procedure described in Example IX , the defoliation effect on rank growth cotton was determined for representative synergistic compositions at various rates of application. […] TABLE G

mature tobacco plants = experiment: Leaf ripening (chlorosis) of tobacco (Example XV, Table L); type: in vivo; details: Rate 1.0 Pounds per Acre, alone; upper three leaves; 7 days after treatment; control 10
Method: as §3, with “Ethephon is commercially available from Union Carbide Agricultural Products Company, Inc., Research Triangle Park, North Carolina.” left out
as §5, with “Cranberry).” for “Cranberry). Five to seven days after planting, the plants were thinned to one plant per pot.”
In a manner similar to the procedure described in Example VI except that mature tobacco plants were used in place of snapbean plants, the leaf ripening effect of tobacco was determined for representative synergistic compositions at various rates of application. […] Percent tobacco leaf ripening (chlorosis) was determined by visual observation of the upper three leaves of the tobacco plant at 7 days after treatment. […]

snapbean plants [7] = experiment: Abscission of snapbean plant leaves with ethylene gas exposure (Example XVII, Table N); type: in vivo, Phaseolus vulgaris var. Cranberry
cotton [8] = experiment: Defoliation of cotton at various rates (Example XIII, Table J); type: in vivo; details: alone
Method: as §1, §2
In a manner similar to the procedure described in Example IX , the defoliation effect on cotton was determined for representative synergistic compositions at various rates of application. TABLE J

[9] = Concentration 0.1 ppm ethylene gas
[10] = Concentration 125 ppm foliar spray
[11] = Concentration 250 ppm foliar spray

CCOC(=O)C1(C(=O)Nc2cc(Cl)c(Cl)cc2C)CC1 [Compound 77, ethyl 1-(2-methyl-4,5-dichlorophenylaminocarbonyl)cyclopropanecarboxylate]
Percent Defoliation (cotton [1]): 0%

O=C(O)C1(C(=O)Nc2ccc(Cl)cc2Cl)CC1 [Compound 114]
pest or weed control at 280.212 g/ha (snapbean plants [2]): 0%
pest or weed control at 560.425 g/ha (snapbean plants [2]): 0%

NP(N)(=O)CCCl [2-Chloroethylphosphonic diamide]
Percent Defoliation (snapbean plants [3]; Rate 0.125 Pounds per Acre): 0%
Percent Defoliation (snapbean plants [3]; Rate 0.25 Pounds per Acre): 0%
Percent Defoliation (snapbean plants [3]; Rate 0.50 Pounds per Acre): 0%

O=C(O)C1(C(=O)Nc2ccc(Br)cc2Br)CC1 [Compound 120]
pest or weed control at 280.212 g/ha (snapbean plants [2]): 0%
pest or weed control at 560.425 g/ha (snapbean plants [2]): 0%

CCOC(=O)C1(C(=O)Nc2ccc(Cl)cc2Cl)CC1 [Compound 80]
pest or weed control at 280.212 g/ha (snapbean plants [2]): 0%
pest or weed control at 560.425 g/ha (snapbean plants [2]): 0%

O=C(O)C1(C(=O)Nc2cc(Cl)ccc2Cl)CC1 [Compound 113]
pest or weed control at 280.212 g/ha (snapbean plants [2]): 0%
pest or weed control at 560.425 g/ha (snapbean plants [2]): 0%

CCOC(=O)C1(C(=O)Nc2ccc(Br)cc2C)CC1 [Compound 96]
Percent Defoliation (snapbean plants [4]): 0%
Percent Defoliation (cotton [5]; Rate 0.5 Pounds per Acre): 0%
Percent Defoliation (cotton [5]; Rate 1.0 Pounds per Acre): 0%
inhibition at 560.425 g/ha (cotton plant): 0%
Percent Stimulation (cotton plant): 0%
Percent Defoliation (cotton [1]): 0%
Percent Defoliation (snapbean plants [6]; Rate 0.25 Pounds per Acre): 0%
Percent Defoliation (snapbean plants [6]; Rate 0.50 Pounds per Acre): 0%
Percent Boil Opening (cotton plants): *
Percent Defoliation (cotton plants): 0%
Percent Defoliation (rank growth cotton): 0%
pest or weed control at 280.212 g/ha (snapbean plants [2]): 0%
pest or weed control at 560.425 g/ha (snapbean plants [2]): 0%
Percent Ripening (Chlorosis) (mature tobacco plants): 10%

O=C(O)C1(C(=O)Nc2ccc(Cl)cc2F)CC1 [Compound 115]
pest or weed control at 280.212 g/ha (snapbean plants [2]): 0%
pest or weed control at 560.425 g/ha (snapbean plants [2]): 0%

C=C [Ethylene Gas, ethylene, reference compound]
Percent Abscission 48 Hours (snapbean plants [7]; [9]): 0%
Percent Abscission 96 Hours (snapbean plants [7]; [9]): 0%

Cc1cc(Br)ccc1NC(=O)C1(C(=O)O)CC1 [Compound 111]
Percent Defoliation (cotton [5]; Rate 0.5 Pounds per Acre): 0%
Percent Defoliation (cotton [5]; Rate 1.0 Pounds per Acre): 0%
inhibition at 560.425 g/ha (cotton plant): 0%
Percent Stimulation (cotton plant): 0%
Percent Defoliation (cotton [8]; Rate 0.25 Pounds per Acre): 0%
Percent Defoliation (cotton [8]; Rate 0.5 Pounds per Acre): 0%
Percent Boil Opening (cotton plants): *
Percent Defoliation (cotton plants): 0%
Percent Defoliation (rank growth cotton): 0%
Percent Abscission 48 Hours (snapbean plants [7]; [10]): 0%
Percent Abscission 96 Hours (snapbean plants [7]; [10]): 17%
Percent Abscission 48 Hours (snapbean plants [7]; [11]): 33%
Percent Abscission 96 Hours (snapbean plants [7]; [11]): 50%
Percent Defoliation (snapbean plants [3]; Rate 0.125 Pounds per Acre): 0%
Percent Defoliation (snapbean plants [3]; Rate 0.25 Pounds per Acre): 0%
Percent Defoliation (snapbean plants [3]; Rate 0.50 Pounds per Acre): 0%
pest or weed control at 280.212 g/ha (snapbean plants [2]): 0%
pest or weed control at 560.425 g/ha (snapbean plants [2]): 0%

O=P(O)(CCCl)OCCCl [2-Chloroethyl ester of 2-chloroethylphosphonic acid]
Percent Defoliation (snapbean plants [3]; Rate 0.125 Pounds per Acre): 0%
Percent Defoliation (snapbean plants [3]; Rate 0.25 Pounds per Acre): 0%
Percent Defoliation (snapbean plants [3]; Rate 0.50 Pounds per Acre): 0%

O=C(O)C1(C(=O)Nc2ccc(Br)cc2)CC1 [Compound 117]
pest or weed control at 280.212 g/ha (snapbean plants [2]): 0%
pest or weed control at 560.425 g/ha (snapbean plants [2]): 0%

CCOC(=O)C1(C(=O)Nc2ccc(Cl)cc2F)CC1 [Compound 82]
pest or weed control at 280.212 g/ha (snapbean plants [2]): 0%
pest or weed control at 560.425 g/ha (snapbean plants [2]): 0%

O=C(O)C1(C(=O)Nc2ccc(Cl)cc2Br)CC1 [Compound 122]
pest or weed control at 280.212 g/ha (snapbean plants [2]): 0%
pest or weed control at 560.425 g/ha (snapbean plants [2]): 0%

CCOC(=O)C1(C(=O)Nc2ccc(Br)c(Cl)c2)CC1 [Compound 90]
pest or weed control at 280.212 g/ha (snapbean plants [2]): 0%
pest or weed control at 560.425 g/ha (snapbean plants [2]): 0%

O=C(O)C1(C(=O)Nc2ccc(Br)c(Cl)c2)CC1 [Compound 123]
pest or weed control at 280.212 g/ha (snapbean plants [2]): 0%
pest or weed control at 560.425 g/ha (snapbean plants [2]): 0%

O=C(O)C1(C(=O)Nc2ccc(Br)cc2Cl)CC1 [Compound 121]
pest or weed control at 280.212 g/ha (snapbean plants [2]): 0%
pest or weed control at 560.425 g/ha (snapbean plants [2]): 0%

Cc1cc(Cl)c(Cl)cc1NC(=O)C1(C(=O)O)CC1 [Compound 110, 1-(2-methyl-4,5-dichlorophenylaminocarbonyl)cyclopropanecarboxylic acid]
Percent Defoliation (cotton [1]): 0%

CCOC(=O)C1(C(=O)Nc2ccc(Br)cc2Cl)CC1 [Compound 88]
pest or weed control at 280.212 g/ha (snapbean plants [2]): 0%
pest or weed control at 560.425 g/ha (snapbean plants [2]): 0%

O=C(O)C1(C(=O)Nc2cc(Cl)c(Cl)cc2Cl)CC1 [Compound 112]
pest or weed control at 280.212 g/ha (snapbean plants [2]): 0%
pest or weed control at 560.425 g/ha (snapbean plants [2]): 0%

O=C(O)C1(C(=O)Nc2ccc(Cl)cc2)CC1 [Compound 116]
pest or weed control at 280.212 g/ha (snapbean plants [2]): 0%
pest or weed control at 560.425 g/ha (snapbean plants [2]): 0%
